From US8263538B2, “Personal wash cleanser with mild surfactant systems comprising defined alkanoyl compounds and defined fatty acyl isethionate surfactant product” (priority 2010, dated 2012)

Tested on: intrascapular area of the back
Experiment: 14-day cumulative irritation Patch Test (occlusive patch, cleansers diluted to 25% w/w)
Conditions: for Patch test Total irritation score: higher score = more irritating
Protocol: This was randomized, double-blind study. A sufficient number of subjects were recruited to ensure that 25 subjects completed the study. The 14-day cumulative irritation test was conducted as follows. Patching occurred for 14 consecutive days, except on Sundays. Patches applied on Saturday were left in place until Monday, when freshly prepared patches were applied. The designated patch test sites were approximately 2 cm×2 cm on the intrascapular area of the back. Approximately 0.2 mL of the test product was placed onto a Parke-Davis Readi-Bandage® occlusive patch that measured 2 cm×2 cm. Solutions were made by diluting the cleansers to 25% w/w in distilled water. The patch was then applied to the designated test site. The patches were secured with hypoallergenic tape (Scanpor {Allerderm} as needed). A 0.5% sodium dodecyl sulfate (SDS) solution was used as the control in the test.
Each day following application, the patches were removed, the sites evaluated and identical patches reapplied to the same test sites. All evaluations were made using the following 6-point scoring system: • 0=No evidence of any effect • +=Barely perceptible (minimal, faint, uniform or spotty erythema) numerically equivalent to 0.5 • 1=Mild (pink, uniform erythema covering most of the contact site) • 2=Moderate (pink-red, erythema uniform in the entire contact site) • 3=Marked (bright red erythema with/without petechiae or papules) • 4=Severe (deep red erythema with/without vesiculation or weeping)
If a dermal reaction of 3 or 4 occur with any of the test articles at any point during the study, further patch testing on that subject was terminated at the test site involved, and the attained score was assigned to that site for the subsequent scheduled test days.
Cumulative irritation scores, which were the sum of the numerical irritation grades assigned daily during the 14-day test period, were calculated at the end of the study to compare mildness of the test products. […] The data were statistically analyzed using Tukey-Kramer Comparison, and statistical significance was determined at the 95% confidence level.

[1] = first series of Table 1 (0.5% SDS control = 783)
[2] = second series of Table 1 (0.5% SDS control = 912)

CCCCCCCCCCCCOS(=O)(=O)[O-].[Na+] [0.5% SDS Solution, sodium dodecyl sulfate]
Total irritation score compared to 0.5% SDS solution [1]: 100%
Patch test Total irritation score [1]: 783
Total irritation score compared to 0.5% SDS solution [2]: 100%
Patch test Total irritation score [2]: 912
